Laboratory results as given in article PMC8963254, “Effects of Lysine N-ζ-Methylation in Ultrashort Tetrabasic Lipopeptides (UTBLPs) on the Potentiation of Rifampicin, Novobiocin, and Niclosamide in Gram-Negative Bacteria” (Antibiotics, 2022).
Values after ≈ are worked out from the molar mass of the structure shown. Like-named read-outs stand apart in the source and are kept apart here.

Legend:
[1] = test system: P. aeruginosa PAO1; format: cell-based, Pseudomonas aeruginosa; details: PAO1, 18 h
How it was run: (§1)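 MIC was determined by broth microdilution following CLSI guidelines. Serially varied compound concentrations were incubated with bacterial inoculum at 5 × 10^5 CFU/mL (final) for 18 h at 37 °C. Growth was scored as turbidity by absorbance at 590 nm.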

[2] = test system: K. pneumoniae 113250; format: cell-based, Klebsiella pneumoniae; details: for MICUTBLP: UTBLP alone
How it was run: (§2)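 Values derive from a two-agent checkerboard with an 18 h, 37 °C incubation. FICI cut-offs: ≤0.5 synergy, 0.5–4 additive, >4 antagonism.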

[3] = test system: S. aureus ATCC 29213; format: cell-based, Staphylococcus aureus
How it was run: as §2

[4] = test system: MRSA ATCC 33592; format: cell-based, Staphylococcus aureus
How it was run: as §2

[5] = test system: E. cloacae 118564; format: cell-based, Enterobacter cloacae; details: for MICUTBLP: UTBLP alone
How it was run: as §2

[6] = test system: E. coli ATCC 25922; format: cell-based, Escherichia coli; details: ATCC 25922, 18 h
How it was run: as §1

[7] = test system: A. baumannii 92247; format: cell-based, Acinetobacter baumannii; details: for MICUTBLP: UTBLP alone
How it was run: as §2

[8] = test system: A. baumannii ATCC 17978; format: cell-based, Acinetobacter baumannii; details: for MICUTBLP: UTBLP alone
How it was run: as §2

[9] = test system: A. baumannii AB027; format: cell-based, Acinetobacter baumannii; details: for MICUTBLP: UTBLP alone
How it was run: as §2

[10] = test system: MRSE 61589; format: cell-based, Staphylococcus epidermidis
How it was run: as §2

[11] = test system: MSSE 81388; format: cell-based, Staphylococcus epidermidis
How it was run: as §2

[12] = test system: K. pneumoniae 113250; assay: microbe, parasite or virus in culture; format: cell-based, Klebsiella pneumoniae; details: 113250, 18 h
How it was run: as §1

[13] = test system: A. baumannii ATCC 17978; format: cell-based, Acinetobacter baumannii; details: ATCC 17978, 18 h
How it was run: as §1

[14] = test system: A. baumannii AB92247; assay: microbe, parasite or virus in culture; format: cell-based, Acinetobacter baumannii; details: AB92247, 18 h
How it was run: as §1

[15] = test system: A. baumannii AB027; assay: microbe, parasite or virus in culture; format: cell-based, Acinetobacter baumannii; details: AB027, 18 h
How it was run: as §1

[16] = test system: MRSE 61589; format: cell-based, Staphylococcus epidermidis; details: 61589, 18 h
How it was run: as §1

[17] = test system: MSSE 81388; format: cell-based, Staphylococcus epidermidis; details: 18 h
How it was run: as §1

[18] = test system: E. cloacae 118564; assay: microbe, parasite or virus in culture; format: cell-based, Enterobacter cloacae; details: 118564, 18 h
How it was run: as §1

[19] = test system: E. faecalis ATCC 29212; format: cell-based, Enterococcus faecalis
How it was run: as §2

[20] = test system: E. faecium ATCC 27270; format: cell-based, Enterococcus faecium; details: ATCC 27270, 18 h
How it was run: as §1

[21] = UTBLP in combination with novobiocin
[22] = UTBLP in combination with rifampicin
[23] = novobiocin in combination with the UTBLP
[24] = rifampicin in combination with the UTBLP
[25] = UTBLP alone, plate with chloramphenicol
[26] = UTBLP in combination with chloramphenicol
[27] = chloramphenicol in combination with the UTBLP

MIC [1]: >128 µg/mL
MICUTBLP ([2]; plate with novobiocin): > 128 µg/mL
MICUTBLP ([2]; plate with rifampicin): > 128 µg/mL
MICUTBLP [MICcombo] [2, 21]: 16 µg/mL
MICUTBLP [MICcombo] [2, 22]: 16 µg/mL
MICantibiotic [MICcombo] [2, 23]: 4 µg/mL
MICantibiotic [MICcombo] [2, 24]: 4 µg/mL
MICUTBLP [3, 25]: 128 µg/mL
MICUTBLP [MICcombo] [3, 26]: 0.25 µg/mL
MICchloramphenicol [MICcombo] [3, 27]: 16 µg/mL
MICUTBLP [4, 25]: > 128 µg/mL
MICUTBLP [MICcombo] [4, 26]: 0.25 µg/mL
MICchloramphenicol [MICcombo] [4, 27]: 64 µg/mL
MICUTBLP ([5]; plate with novobiocin): > 128 µg/mL
MICUTBLP ([5]; plate with rifampicin): > 128 µg/mL
MICUTBLP [MICcombo] [5, 21]: 16 µg/mL
MICUTBLP [MICcombo] [5, 22]: 16 µg/mL
MICantibiotic [MICcombo] [5, 23]: 8 µg/mL
MIC [6]: >128 µg/mL
MICUTBLP ([7]; plate with novobiocin): > 128 µg/mL
MICUTBLP ([7]; plate with rifampicin): > 128 µg/mL
MICUTBLP [MICcombo] [7, 21]: 16 µg/mL
MICUTBLP [MICcombo] [7, 22]: 16 µg/mL
MICantibiotic [MICcombo] [7, 23]: 0.25 µg/mL
MICantibiotic [MICcombo] [7, 24]: 0.063 µg/mL
MICUTBLP ([8]; plate with chloramphenicol): > 128 µg/mL
MICUTBLP ([8]; plate with niclosamide): > 128 µg/mL
MICUTBLP ([8]; plate with novobiocin): > 128 µg/mL
MICUTBLP ([8]; plate with rifampicin): > 128 µg/mL
MICUTBLP [MICcombo] [8, 26]: 0.25 µg/mL
MICUTBLP [MICcombo] ([8]; UTBLP in combination with niclosamide): 8 µg/mL
MICUTBLP [MICcombo] [8, 21]: 8 µg/mL
MICUTBLP [MICcombo] [8, 22]: 16 µg/mL
MICantibiotic [MICcombo] [8, 27]: 64 µg/mL
MICantibiotic [MICcombo] ([8]; niclosamide in combination with the UTBLP): 2 µg/mL
MICantibiotic [MICcombo] [8, 23]: 0.5 µg/mL
MICantibiotic [MICcombo] [8, 24]: 0.031 µg/mL
MICUTBLP ([9]; plate with novobiocin): > 128 µg/mL
MICUTBLP ([9]; plate with rifampicin): > 128 µg/mL
MICUTBLP [MICcombo] [9, 21]: 16 µg/mL
MICUTBLP [MICcombo] [9, 22]: 16 µg/mL
MICantibiotic [MICcombo] [9, 23]: 0.25 µg/mL
MICantibiotic [MICcombo] [9, 24]: 0.063 µg/mL
MICUTBLP [10, 25]: 64 µg/mL
MICUTBLP [MICcombo] [10, 26]: 0.25 µg/mL
MICchloramphenicol [MICcombo] [10, 27]: 16 µg/mL
MICUTBLP [11, 25]: 64 µg/mL
MICUTBLP [MICcombo] [11, 26]: 0.25 µg/mL
MICchloramphenicol [MICcombo] [11, 27]: 8 µg/mL
MIC [12]: > 128 µg/mL
MIC [13]: >128 µg/mL
MIC [14]: > 128 µg/mL
MIC [15]: > 128 µg/mL
MIC [16]: 64 µg/mL (≈ 73.8 µM)
MIC [17]: 64 µg/mL (≈ 73.8 µM)
MIC [18]: > 128 µg/mL
MICUTBLP [19, 25]: > 128 µg/mL
MICUTBLP [MICcombo] [19, 26]: 0.25 µg/mL
MICchloramphenicol [MICcombo] [19, 27]: 8 µg/mL
MIC [20]: >128 µg/mL
SMILES: CCCCCCCC(=O)N[C@@H](CCCCNC)C(=O)NCCCN(CCCNC(=O)[C@H](CCCCNC)NC(=O)CCCCCCC)CC(=O)N[C@@H](CCCCNC)C(N)=O [UTBLP 2]
Interpretation ([2]; UTBLP + novobiocin): Synergy (FICI ≤ 0.5 is synergistic)
Interpretation ([2]; UTBLP + rifampicin): Synergy (FICI ≤ 0.5 is synergistic)
Interpretation ([4]; UTBLP + chloramphenicol): Additive (0.5 < x ≤ 4 is additive)
Interpretation ([5]; UTBLP + novobiocin): Synergy (FICI ≤ 0.5 is synergistic)
Interpretation ([5]; UTBLP + rifampicin): Synergy (FICI ≤ 0.5 is synergistic)
Interpretation ([7]; UTBLP + novobiocin): Synergy (FICI ≤ 0.5 is synergistic)
Interpretation ([7]; UTBLP + rifampicin): Synergy (FICI ≤ 0.5 is synergistic)
Interpretation ([8]; UTBLP + chloramphenicol): Additive (0.5 < x ≤ 4 is additive)
Interpretation ([8]; UTBLP + niclosamide): Synergy (FICI ≤ 0.5 is synergistic)
Interpretation ([8]; UTBLP + novobiocin): Synergy (FICI ≤ 0.5 is synergistic)
Interpretation ([8]; UTBLP + rifampicin): Synergy (FICI ≤ 0.5 is synergistic)
Interpretation ([9]; UTBLP + novobiocin): Synergy (FICI ≤ 0.5 is synergistic)
Interpretation ([9]; UTBLP + rifampicin): Synergy (FICI ≤ 0.5 is synergistic)
Interpretation ([10]; UTBLP + chloramphenicol): Additive (0.5 < x ≤ 4 is additive)
Interpretation ([11]; UTBLP + chloramphenicol): Additive (0.5 < x ≤ 4 is additive)
Interpretation ([19]; UTBLP + chloramphenicol): Additive (0.5 < x ≤ 4 is additive)
